Measured values taken from patent US20250082633A1, “COMPOUNDS AND METHODS FOR MODULATING SPLICING” (REMIX THERAPEUTICS INC., priority 2021, published 2025).
Structures can show the parent of a compound that is named as a salt.

How the values were obtained:
[1] = system: HiBiT-tagged MYB protein in K562 cells; test: HiBit protein abundance assay, MYB; format: cell-based, human; conditions: K562 HiBiT-modified cells, 24 hours, luminescence
Procedure: (§1) Compounds described herein were used to screen for effects on quantitative protein abundance using a HiBit assay system (Promega). Quantitative protein abundance was determined by measuring the protein levels of HiBit-tagged protein targets expressed in cell culture via luminescence using the Nano-Glo HiBiT Lytic Detection System, which uses a split complementation assay format to reconstitute NanoBiT enzyme to generate a luminescent signal. A protein abundance assay was developed such that endogenous protein targets could be modified with the HiBiT peptide tag and their abundance could be assessed after compound treatment. Briefly, K562 cell lines containing a HiBiT-modification were treated with various compounds described herein (e.g., compounds of Formulas (I), (II), or (III)). After treatment for 24 hours, the protein abundance of a specific target was determined by measuring luminescence. • Promega Nano-Glo HiBiT Lytic Detection System (cat #N3030) • Corning 384-well TC-treated microplates (cat #3570) • Synthego Engineered Cells Knock-In Clones [table] Cells were maintained in IMDM with 10% FBS. Before the assay, cells were diluted with phenolphthalein-free growth media (IMDM+1% FBS media) and were seeded in a 384-well plate at a density of 10000 cells/well (for each cell line listed in Table 6). Each compound was prepared as a 10-point 3-fold serial dilution in DMSO with the top dose at a final concentration of 10 μM in the well. Unmodified K562 cells were added at the previously specified density with DMSO to serve as an assay baseline and positive control (PC) and DMSO only with the respective modified cell lines was added to the negative control (NC) columns. Final DMSO concentration was kept at or below 0.25%. Treated cell plates were placed in an incubator at 37° C. with 5% CO2 for 24 hours. After 24 hours, 25 μL of Complete HiBit Lytic reagent was added to each well at room temperature (e.g. one plate requiring 10 mL Lytic Buffer, 100 μL LgBiT Protein, 200 μL Lytic Substrate), shaken for 5 minutes at 600 RPM, then left to sit for 10 minutes for signal to stabilize before reading on a Spark Cyto plate reader (Tecan) with a 500 ms measurement time. To determine compound effects on protein abundance of each target in Table 6, the percent response for each respective cell line was calculated at each compound concentration as follows: For the normalized response at each concentration, a four-parameter logistical regression was fit to the data and the response was interpolated at the 50% value to determine a concentration for protein abundance at 50% (IC50) the untreated control.

Target C = test: HiBit protein abundance assay, Target C; format: cell-based; conditions: Homo sapiens; K562 HiBiT-modified cells, 24 hours, luminescence
Procedure: as §1, with “Clones” for “Clones [table]”

IC50 [1] [nM]	IC50 (Target C) [nM]	SMILES
> 10000	> 10000	Cc1cc(-n2cc3cc(N4CCNCC4)ccc3n2)cc2cn(C)nc12 [Compound 121, 2,7-dimethyl-5-(5-piperazin-1-ylindazol-2-yl)indazole]
1000 to 10000	100 to 1000	Cc1nc2c(C)c(O)c(-c3cc(F)c4nn(C5CCNCC5)cc4c3)cc2o1 [Compound 123, 6-[7-fluoro-2-(4-piperidyl)indazol-5-yl]-2,4-dimethyl-1,3-benzoxazol-5-ol]
100 to 1000	< 100	Cc1cn2nc(-c3cc(F)c4nn(C5CCNCC5)cc4c3)cc2c(C)n1 [Compound 124, 2-[7-fluoro-2-(4-piperidyl)indazol-5-yl]-4,6-dimethyl-pyrazolo[1,5-a]pyrazine]
100 to 1000	< 100	Cc1cn2cc(-c3cc(F)c4nn(C5CCNCC5)cc4c3)cc(C)c2n1 [Compound 125, 5-(2,8-dimethylimidazo[1,2-a]pyridin-6-yl)-7-fluoro-2-(4-piperidyl)indazole]
> 10000	1000 to 10000	Cc1c(O)c(-c2cc(F)c3nn(C4CCNCC4)cc3c2)cc2cn(C)nc12 [Compound 126, 5-[7-fluoro-2-(4-piperidyl)indazol-5-yl]-2,7-dimethyl-indazol-6-ol]
100 to 1000	< 100	Cc1cn2cc(-c3cc(F)c4nn(C5CCNCC5)cc4c3)cc(Cl)c2n1 [Compound 127, 5-(8-chloro-2-methylimidazo[1,2-a]pyridin-6-yl)-7-fluoro-2-(piperidin-4-yl)-2H-indazole hydrochloride salt]
100 to 1000	< 100	Cc1cn2cc(-c3cc(F)c4nn(C5CCNCC5)cc4c3)cc(F)c2n1 [Compound 129, 7-fluoro-5-(8-fluoro-2-methylimidazo[1,2-a]pyridin-6-yl)-2-(piperidin-4-yl)-2H-indazole]
100 to 1000	< 100	Cn1cc2cc(-c3cc(F)c4nn(C5CCNCC5)cc4c3)cc(C#N)c2n1 [Compound 130, 5-[7-fluoro-2-(4-piperidyl)indazol-5-yl]-2-methyl-indazole-7-carbonitrile]
1000 to 10000	100 to 1000	Cc1cn2cc(-c3cc(F)c4nn(C5CCNCC5)cc4c3)nc(C)c2n1 [Compound 132, 6-[7-fluoro-2-(4-piperidyl)indazol-5-yl]-2,8-dimethyl-imidazo[1,2-a]pyrazine]
100 to 1000	< 100	Cc1cc(-c2cc(F)c3nn(C4CCNCC4)cc3c2)cc2cn(C)nc12 [Compound 133, 5-(2,7-dimethylindazol-5-yl)-7-fluoro-2-(4-piperidyl)indazole]
1000 to 10000	1000 to 10000	Cc1nc2ccc(-c3cc(F)c4nn(C5CCNCC5)cc4c3)cc2s1 [Compound 134, 6-(7-fluoro-2-(piperidin-4-yl)-2H-indazol-5-yl)-2-methylbenzo[d]thiazole]
100 to 1000	100 to 1000	Cc1nc2ccc(-c3cc(F)c4nn(C5CCNCC5)cc4c3)cc2o1 [Compound 135, 6-[7-fluoro-2-(4-piperidyl)indazol-5-yl]-2-methyl-1,3-benzoxazole]
100 to 1000	< 100	Cc1nc2c(F)cc(-c3cc(F)c4nn(C5CCNCC5)cc4c3)cc2o1 [Compound 136, 4-fluoro-6-[7-fluoro-2-(4-piperidyl)indazol-5-yl]-2-methyl-1,3-benzoxazole]
100 to 1000	< 100	Cc1nc2c(C)cc(-c3cc(F)c4nn(C5CCNCC5)cc4c3)cc2o1 [Compound 137, 6-[7-fluoro-2-(4-piperidyl)indazol-5-yl]-2,4-dimethyl-1,3-benzoxazole]

Second part, the molecule before the results:

SMILES	IC50 [1] [nM]	IC50 (Target C) [nM]
Cn1cc2cc(-c3cc(F)c4nn(C5CCNCC5)nc4c3)cc(F)c2n1 [Compound 103, 4-fluoro-6-(7-fluoro-2-methyl-indazol-5-yl)-2-(4-piperidyl) benzotriazole]	1000 to 10000	100 to 1000
CCN1CCC(n2cc3cc(-c4cc(F)c5nn(C)cc5c4)cc(F)c3n2)CC1 [Compound 104, 2-(1-ethyl-4-piperidyl)-7-fluoro-5-(7-fluoro-2-methyl-indazol-5-yl)indazole]	100 to 1000	100 to 1000
Cn1cc2cc(-c3ccc4nn(C5CCNCC5)cc4c3)cc(F)c2n1 [Compound 105, 7-fluoro-2-methyl-5-[2-(4-piperidyl)indazol-5-yl]indazole]	100 to 1000	100 to 1000
Cn1cc2cc(-c3ccc4nn(C5CCNCC5)cc4n3)c(O)c(F)c2n1 [Compound 107, 7-fluoro-2-methyl-5-[2-(4-piperidyl)pyrazolo [4,3-b]pyridin-5-yl]indazol-6-ol]	100 to 1000	100 to 1000
Cn1cc2cc(-c3cc(F)c4nn(C5CCNC6(CC6)C5)cc4c3)cc(F)c2n1 (stereo not drawn) [Compound 108, 2-(4-azaspiro[2.5]octan-7-yl)-7-fluoro-5-(7-fluoro-2-methyl-indazol-5-yl)indazole]	100 to 1000	100 to 1000
Cc1c(O)c(-c2ccc3nn(C4CCNCC4)cc3n2)cc2cn(C)nc12 [Compound 109, 2,7-dimethyl-5-[2-(4-piperidyl)pyrazolo[4,3-b]pyridin-5-yl]indazol-6-ol]	100 to 1000	< 100
Cn1cc2cc(-c3ccc4nn(C5CCNCC5)cc4n3)c(O)cc2n1 [Compound 110, 2-methyl-5-[2-(4-piperidyl)pyrazolo[4,3-b]pyridin-5-yl]indazol-6-ol]	100 to 1000	100 to 1000
Cc1c(O)c(-c2ccc3nn(C4CCNCC4)nc3n2)cc2cn(C)nc12 [Compound 113, 2,7-dimethyl-5-[2-(4-piperidyl)triazolo[4,5-b]pyridin-5-yl]indazol-6-ol]	1000 to 10000	1000 to 10000
Cc1cc(-n2cc3cc(C4CCNCC4)cc(F)c3n2)cc2cn(C)nc12 [Compound 115, 2-(2,7-dimethylindazol-5-yl)-7-fluoro-5-(4-piperidyl)indazole]	1000 to 10000	1000 to 10000
Cc1cc(-n2cc3cc(N4CCNCC4)cc(F)c3n2)cc2cn(C)nc12 [Compound 117, 2-(2,7-dimethylindazol-5-yl)-7-fluoro-5-piperazin-1-yl-indazole]	1000 to 10000	> 10000
Cc1nc2c(C)cc(-n3cc4cc(N5CCNCC5)cc(F)c4n3)cc2o1 [Compound 119, 6-(7-fluoro-5-piperazin-1-yl-indazol-2-yl)-2,4-dimethyl-1,3-benzoxazole]	1000 to 10000	> 10000
Cc1cn2nc(-n3cc4cc(C5CCNCC5)cc(F)c4n3)cc(C)c2n1 [Compound 120, 6-[7-fluoro-5-(4-piperidyl)indazol-2-yl]-2,8-dimethyl-imidazo[1,2-b]pyridazine]	1000 to 10000	> 10000
Cc1cn2nc(-c3cc(F)c4nn(C5CCNCC5)cc4c3)cc(C)c2n1 [Compound 122, 6-(7-fluoro-2-(piperidin-4-yl)-2H-indazol-5-yl)-2,8-dimethylimidazo [1,2-b]pyridazine hydrochloride salt]	< 100	< 100
